In US20090202497A1, “USE OF GLP-1, GLP-1 DERIVATIVES OR GLP-1 FRAGMENTS FOR SKIN REGENERATION, STIMULATION OF HAIR GROWTH, OR TREATMENT OF DIABETES” (The General Hospital Corporation, priority 2005, published 2009):

Legend:
[1] = tested on: shaved New Zealand white rabbits; test: Hair growth after intradermal peptide injection into the backs of shaved rabbits; assay type: in vivo, rabbit; settings: for hair growth at the sites of injection: 100 μg intradermally in Freund's adjuvant, observed approximately 3-4 weeks after last injection
Method: 0.1 mg (100 μg) of the following peptides were injected intradermally into the backs of the shaved New Zealand white rabbits: synthetic mammalian GLP-1 (1-37), synthetic GLP-1 peptide fragment containing amino acid sequence 16-30 of GLP-1 (1-37) (amino acid numbering starts from histidine 1 of mammalian GLP-1 (1-37), synthetic rat GLP-2 peptide fragment containing amino acid sequence 9-24 of rat GLP-2 (amino acid numbering starts at histidine 1 of the rat GLP-2 sequence), rat IP-2 and synthetic mammalian glucagon. Sequences for rat GLP-2, rat IP-2 and mammalian glucagon are well known in the art, and are provided, for example, in U.S. Pat. No. 6,849,708, which is hereby wholly incorporated by reference (see, e.g., FIG. 1 of U.S. Pat. No. 6,849,708). The total amount of peptide was administered in 10-20 intradermal injections as an emulsification in Freund's adjuvant. Each peptide was tested in four rabbits, except for GLP-1 (1-37) that was injected into 5 rabbits. This amount of peptide was administered at 3 time intervals (100 μg at each time interval), one week apart. […] This effect was not observed in any of the rabbits that were immunized with any other of the above described peptides. […] The inventors observed enhanced hair growth upon intradermal injection of only GLP-1 (1-37) into rabbits.

[2] = tested on: cultured skin-derived cells; test: cAMP luciferase reporter plasmid transfected into cultured skin-derived cells; assay type: cell-based, mouse; settings: data not shown
[3] = tested on: cultured skin-derived cells; test: cAMP levels in cell extracts after incubation with GLP-1; assay type: cell-based, mouse; settings: incubation with GLP-1 for 5-30 min; data not shown
Method: To determine whether GLP-1 receptors are actively coupled to signal transduction pathways in skin-derived cells, GLP-1 was added to the cells and examined for the activation of cell signaling. Three signaling pathways were investigated: Cyclic AMP, calcium influx, and mitogen activated protein kinase phosphorylation (MAPK).
Since GLP-1Rs are classically recognized to couple to Gs and adenylyl cyclase to generate cAMP cell extracts were assayed for changes in levels of cAMP after their incubation with GLP-1 for 5-30 min.

[4] = tested on: mouse skin-derived cells; test: Differentiation of cultured skin-derived cells into insulin C-peptide producing cells (immunostaining); assay type: cell-based; settings: differentiation media with GLP-1 (10 nM) for 30 days
Method: For in-vitro differentiation, after passaging for one month, mouse skin-derived cells were freshly plated and overlaid with differentiation medium composed of RPMI1640 containing 1% HEPES, 1% penicillin/streptomycin/fungizone, 1% pyruvate, 2% B-27 supplement, 2% FBS, […] MIN6 cells, provided by J. Miyazaki, were cultured as described (Miyazaki, J. et al., Endocrinology 127:126-32 (1990)).
For immunochemistry, 7 μm frozen sections were prepared from newborn C57BL/6 mouse skin, and skin-derived tissue culture cells were grown on coverslips. Tissues/coverslips were fixed with 4% paraformaldehyde at RT for 15 min. They were then rinsed with PBS containing 0.2% Triton X-100 and blocked with 3% normal donkey serum for 1 hour at RT. Tissues/coverslips were incubated with primary antibody at a 1:500 dilution at RT for 1 hour, rinsed with PBS containing 0.2% Triton X-100, and incubated with secondary (donkey) Cy2- or Cy3-conjugated antisera at RT for 1 hour. They were then washed with PBS and mounted with fluorescent mounting medium. […]
Mouse skin was minced and strained, and the resulting cells were used to establish primary cultures of mouse skin-derived cells. […] Immunoreactivity was detected with a Cy-3-conjugated secondary antibody.

[5] = tested on: cultured skin-derived cells; test: fura-2 loading and perforated patch clamp monitoring of membrane potential and current; assay type: cell-based, mouse; settings: perforated patch clamp; data not shown
Source text: The cells were next loaded with the Ca2+ indicator fura-2, and changes in membrane potential and current were monitored using the perforated patch clamp technique.

[6] = tested on: P42/44 MAPK (ERK1/2); test: Western immunoblot of ERK1/2 phosphorylation in primary skin cell cultures; assay type: cell-based, mouse; settings: 10 nM GLP-1
Method: Cultures of C57B6/L mouse skin-derived cells were grown in 100 mm dishes to 80% confluence. Cultures were washed once with PBS and incubated with KRB buffer (115 mM NaCl, 5 mM KCl, 10 mM NaHCO3, 2.5 mM MgCl2, 2.5 mM CaCl2, 20 mM HEPES, pH 7.4) containing 0.5% bovine serum albumin (BSA) and 1 mM glucose at 37° C. for 1 hour. Cultures were then incubated with 10 nM GLP1 in the setting of no (0 mM), low (2.8 mM) or high (16.7 mM) glucose. Proteins were extracted with lysis buffer (50 mM Hepes pH 7.6, 160 mM NaCl, 20 mM sodium pyrophosphate, 20 mM glycerophosphate, 10 mM NaF, 2 mM sodium vanadate, […], and protease inhibitor cocktail). Ten (10) μg of protein per lane was electrophoresed in 4-12% Bis-Tris gels (Invitrogen Corp.) and transferred onto nitrocellulose membranes (Nitrobind, Osmotics, Inc., Minnetonka, Minn.) at 4° C. overnight. Membranes were blocked with 3% BSA in PBS with 0.2% Tween-80 for 1 hour at RT, incubated with mouse monoclonal anti-phospho-P42 MAPK antibody (1:2000 dilution) at 4° C. overnight, washed, and incubated with horseradish peroxidase-conjugated secondary antibody at RT for 1 hour. Immunostained proteins were detected using a the ECL chemiluminescence detection kit (Amersham Biosciences, Ltd., Buckinghamshire, England). […]

Substance: rat GLP-2 peptide fragment containing amino acid sequence 9-24 of rat GLP-2: synthetic rat GLP-2 peptide fragment, residues 9-24, numbering from histidine 1 of rat GLP-2 (EMNTILDNLATRDFIN; Glucagon-like peptide 2; UniProt P06883 154-169, looked up, fragment) [reference compound]
- hair growth at the sites of injection ([1]; 3 times one week apart): not observed

Substance: glucagon-like peptide-1 [GLP-1 (1-37)]
- activation of cAMP luciferase reporter [2]: failed to activate
- hair growth at the sites of injection ([1]; 3 times one week apart): luxurious hair growth was observed only at the sites of injection
- rabbits showing hair growth at the sites of injection ([1]; 100 μg intradermally, 3 times one week apart, approximately 3-4 weeks after last injection): 4 out of 5
- hair growth in repeat experiments ([1]; repeat experiments at different seasons of the year): variable results
- changes in levels of cAMP [3]: No changes in cAMP levels were observed
- cytoplasmic staining of insulin C-peptide [4]: Many of the cells showed cytoplasmic staining of C-peptide
- membrane current in response to peptide [5]: No membrane current was detected
- phosphorylation of ERK1/2 (time course) ([6]; 0, 5, 15 or 30 minutes, 0, 2.8 or 16.7 mM glucose): prompt phosphorylation of ERK1/2 after 5 minutes followed by defervescence of phosphorylation at 15 and rephosphorylation at 30 min
- glucose dependence of ERK1/2 phosphorylation ([6]; no, 2.8 mM or 16.7 mM glucose): glucose-dependent

Substance: GLP-1 peptide fragment containing amino acid sequence 16-30 of GLP-1 (1-37): synthetic GLP-1 peptide fragment containing amino acid sequence 16-30 of GLP-1 (1-37) (VSSYLEGQAAKEFIA; Glucagon-like peptide 1; UniProt P01275 107-121, looked up, fragment)
- hair growth at the sites of injection ([1]; 3 times one week apart): not observed

Substance: glucagon [mammalian glucagon, reference compound]
- hair growth at the sites of injection ([1]; 3 times one week apart): not observed
